Like-named read-outs stand apart in the source and are kept apart here.
Columns and labels:
[1] = target: T1, recombinant human DHFR (Homo sapiens, UniProt P00374); test: Dihydrofolate reductase (DHFR) inhibitory activity assay; assay type: biochemical
T1 construct: purchased Sigma CS0340
T1 sequence (P00374 1-187): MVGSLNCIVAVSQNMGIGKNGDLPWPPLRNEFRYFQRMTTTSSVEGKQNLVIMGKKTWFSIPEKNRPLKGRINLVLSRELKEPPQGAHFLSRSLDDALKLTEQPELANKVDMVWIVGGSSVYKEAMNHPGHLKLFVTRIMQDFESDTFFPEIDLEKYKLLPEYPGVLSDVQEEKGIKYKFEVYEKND
Description: The ability of compounds to inhibit DHFR activity was measured in an assay based on the ability of DHFR to catalyse the reversible NADPH-dependent reduction of dihydrofolic acid to tetrahydrofolic acid using a Sigma kit (Catalogue number CS0340). This uses proprietary assay buffer and recombinant human DHFR at 7.5×10^−4 Unit per reaction, NADPH at 60 μM and dihydrofolic acid at 50 μM. The reaction was followed by monitoring the decrease in absorbance at 340 nm, for a 2 minute period, at room temperature, and the enzyme activity was calculated as the rate of decrease in absorbance. Enzyme activity, in the presence of inhibitor, was expressed as a percentage of inhibitor-free activity and the inhibitor IC50 was determined from a sigmoidal dose response curve using XIfit software (% activity against log concentration of compound). Each sample was run in triplicate and each dose response curve was composed of 10 dilutions of the inhibitor.

[2] = tested on: HCT 116 cells; test: Cell proliferation inhibition assay (WST-1), HCT116; assay type: cell-based; settings: for Ratio IC50 Cell/enzyme (HCT116), Table 2: HCT116 cell IC50 / DHFR enzyme IC50
Description: (§1) Following 24 h of growth cells were treated with compound. Plates were then re-incubated for a further 72-96 h before a WST-1 cell viability assay was conducted according to the suppliers (Roche Applied Science) instructions
(§2) Data were expressed as a percentage inhibition of the control, measured in the absence of inhibitor, as follows;—
(§3) where S^l is the signal in the presence of inhibitor and S^o is the signal in the presence of DMSO.
(§4) Dose response curves were generated from 8 concentrations (top final concentration 10 μM, with 3-fold dilutions), using 6 replicates.

[3] = tested on: U937 cells; test: Cell proliferation inhibition assay (WST-1), U937; assay type: cell-based; settings: for selectivity between a monocytic and non-monocytic cell line (cell proliferation): U937 versus HCT116; for Ratio IC50 cell/enzyme (Aurora kinase): U937 cell IC50 / Aurora kinase A IC50
Description: as §1, §2, §3, §4

[4] = tested on: U937 cell extract (esterase activity); test: Broken cell carboxylesterase assay, U937 cell extract; assay type: in vitro ADME; settings: U937 versus HCT116 broken cell assay
Description: U937 or HCT 116 tumour cells (˜10^9) were washed in 4 volumes of Dulbeccos PBS (˜1 litre) and pelleted at 525 g for 10 min at 4° C. This was repeated twice and the final cell pellet was resuspended in 35 ml of cold homogenising buffer (Trizma 10 mM, NaCl 130 mM, CaCl2 0.5 mM pH 7.0 at 25° C.). Homogenates were prepared by nitrogen cavitation (700 psi for […] at 4° C.). The homogenate was kept on ice and supplemented with a cocktail of Inhibitors at final concentrations of: • Leupeptin 1 μM • Aprotinin 0.1 μM • E64 8 μM • Pepstatin 1.5 μM • Bestatin 162 μM • Chymostatin 33 μM
After clarification of the cell homogenate by centrifugation at 525 g for 10 min, the resulting supernatant was used as a source of esterase activity and was stored at −80° C. until required.
Hydrolysis of esters to the corresponding carboxylic acids can be measured using the cell extract, prepared as above. To this effect cell extract (˜30 μg/total assay volume of 0.5 ml) was incubated at 37° C. in a Tris-HCl 25 mM, 125 mM NaCl buffer, pH 7.5 at 25° C. At zero time the ester (substrate) was then added at a final concentration of 2.5 μM and the samples were incubated at 37° C. for the appropriate time (usually 0 or 80 min). […] After centrifugation at 12000 g for 5 min, samples were analysed for the ester and its corresponding carboxylic acid at room temperature by LCMS (Sciex API 3000, HP1100 binary pump, CTC PAL). […]

[5] = tested on: TNFα production in human whole blood; test: LPS-stimulation of human whole blood, TNF-α ELISA; assay type: cell-based; settings: for Ratio IC50 WB/enzyme (P38 MAP kinase): whole blood IC50 / P38 MAP kinase IC50; for Ratio IC50 WB/enzyme (PI 3-Kinase): whole blood IC50 / PI3-Kinase IC50
Description: Whole blood was taken by venous puncture using heparinised vacutainers (Becton Dickinson) and diluted in an equal volume of RPMI1640 tissue culture media. 100 μl was plated in V-bottomed 96 well tissue culture plates. Inhibitor was added in 100 μl of RPMI1640 media, and 2 h later the blood was stimulated with LPS (E coli strain 005:B5, Sigma) at a final concentration of 100 ng/ml and incubated at 37° C. in 5% CO2 for 6 h. TNF-α levels were measured from cell-free supernatants by sandwich ELISA (R&D Systems #QTA00B).

[6] = compound as shown (ester or unmodified modulator, or named acid), read-out: IC50 nM enzyme (DHFR)
[7] = enzyme IC50 for the acid resulting from cleavage of the ester shown, read-out: IC50 nM enzyme (acid), figures in brackets

## Cc1c(CNc2ccc(OCCC(N)C(=O)OC3CCCC3)cc2)cnc2nc(N)nc(N)c12 (stereo not drawn)
[1]; [6]
  IC50: 2700 nM
[1]; [7]
  IC50: 11 nM
[2]
  Ratio IC50 Cell/enzyme (HCT116), Table 2: 14

## Cc1c(CNc2ccc(OCCC(NC3CCCCC3)C(=O)OC3CCCC3)cc2)cnc2nc(N)nc(N)c12 (stereo not drawn)
[1]; [6]
  IC50: 1030 nM
[1]; [7]
  IC50: 25 nM
[2]
  Ratio IC50 Cell/enzyme (HCT116), Table 2: 66

## Cc1c(CNc2ccc(CNC(CC(C)C)C(=O)OC3CCCC3)cc2)cnc2nc(N)nc(N)c12 (stereo not drawn)
[1]; [6]
  IC50: 4000 nM
[1]; [7]
  IC50: 10 nM
[2]
  Ratio IC50 Cell/enzyme (HCT116), Table 2: 17

## Cc1c(CNc2ccc(C(=O)NC(CC(C)C)C(=O)OC3CCCC3)cc2)cnc2nc(N)nc(N)c12 (stereo not drawn)
[1]; [6]
  IC50: 1700 nM
[1]; [7]
  IC50: 8 nM

## COc1cc(NCc2cnc3nc(N)nc(N)c3c2C)cc(OC)c1OC [Compound (2 G=N), 5-Methyl-6-((3,4,5-trimethoxyphenylamino)methyl)pyrido[2,3-d]pyrimidine-2,4-diamine, reference compound]
[1]; [6]
  IC50: 10 nM

## Cc1c(CNc2ccc(OCC[C@H](NC3CCCCC3)C(=O)OC3CCCC3)cc2)cnc2nc(N)nc(N)c12 [Compound (4), (S)-2-Cyclohexylamino-4-{4-[(2,4-diamino-5-methyl-pyrido[2,3-d]pyrimidin-6-ylmethyl)-amino]-phenoxy}-butyric acid cyclopentyl ester]
[3]
  selectivity between a monocytic and non-monocytic cell line (cell proliferation): significantly more anti-proliferative in monocytic cell lines
[4]
  cleavage of the ester in monocytic versus non-monocytic cell lines: selective cleavage in monocytic but not non-monocytic cell lines

## Cc1c(CNc2ccc(CN[C@@H](CC(C)C)C(=O)OC3CCCC3)cc2)cnc2nc(N)nc(N)c12 [Compound (5), (S)-2-{4-[(2,4-Diamino-5-methyl-pyrido[2,3-d]pyrimidin-6-ylmethyl)-amino]-benzylamino}-4-methyl-pentanoic acid cyclopentyl ester]
[3]
  selectivity between a monocytic and non-monocytic cell line (cell proliferation): significantly more anti-proliferative in monocytic cell lines
[4]
  cleavage of the ester in monocytic versus non-monocytic cell lines: selective cleavage in monocytic but not non-monocytic cell lines

## Cc1c(CNc2ccc(C(=O)N[C@@H](CC(C)C)C(=O)OC3CCCC3)cc2)cnc2nc(N)nc(N)c12 [Compound (6), (S)-2-{4-[(2,4-Diamino-5-methyl-pyrido[2,3-d]pyrimidin-6-ylmethyl)-amino]-benzoylamino}-4-methyl-pentanoic acid cyclopentyl ester]
[1]; [6]
  IC50: 1700 nM
[2]; HCT116, versus (2 G=N)
  fold more potent in the HCT116 than the unmodified analogue (2 G=N): 15 fold
[3]; U937 cells, versus (2 G=N)
  fold more potent in U937 cells than the unmodified analogue (2 G=N): 100 fold

## COc1cc2nccc(Oc3ccc(NC(=O)c4ccccc4)cc3)c2cc1OC [Compound (11), N-{4-(7-methoxy-6-methoxy-quinoline-4-yloxy)-phenyl}-benzamide, reference compound]
[3]
  Ratio IC50 cell/enzyme (Aurora kinase): 1.3

## COc1cc2c(Oc3ccc(NC(=O)c4ccccc4)cc3)ccnc2cc1OCC[C@H](N)C(=O)OC1CCCC1 [Compound (12), (S)-2-amino-4-[4-(4-benzoylamino-phenoxy)-6-methoxy-quinolin-7-yloxy]-butyric acid cyclopentyl ester]
[3]
  Ratio IC50 cell/enzyme (Aurora kinase): 0.0015

## COc1cc2c(Oc3ccc(NC(=O)c4ccccc4)cc3)ccnc2cc1OCC[C@H](N)C(=O)OC(C)(C)C [Compound (14), (S)-2-Amino-4-[4-(4-benzoylamino-phenoxy)-6-methoxy-quinolin-7-yloxy]-butyric acid tert-butyl ester]
[3]
  Ratio IC50 cell/enzyme (Aurora kinase): 0.025

## Nc1c(C(=O)c2ccc(F)cc2F)ccc(=O)n1-c1c(F)cccc1F [Compound (15), 6-Amino-5-(2,4-difluoro-benzoyl)-1-(2,6-difluoro-phenyl)-1H-pyridin-2-one, reference compound]
[5]
  Ratio IC50 WB/enzyme (P38 MAP kinase): 6

## CC(C)(C)OC(=O)[C@@H](N)CCOc1cc(F)c(-n2c(N)c(C(=O)c3ccc(F)cc3F)ccc2=O)c(F)c1 [Compound (18), (S)-2-Amino-4-{4-[6-amino-5-(2,4-difluoro-benzoyl)-2-oxo-2H-pyridin-1-yl]-3,5-difluoro-phenoxy}-butyric acid tert-butyl ester]
[5]
  Ratio IC50 WB/enzyme (P38 MAP kinase): 18

## Cc1c(CNc2ccc(C(=O)N[C@@H](CC(C)C)C(=O)O)cc2)cnc2nc(N)nc(N)c12 [Compound (19), (S)-2-(4-((2,4-diamino-5-methylpyrido[2,3-d]pyrimidin-6-yl)methylamino)benzamido)-4-methylpentanoic acid]
[1]; [6]
  IC50: 10 nM

## CC(=O)Nc1nc(C)c(-c2ccc(Cl)c(S(C)(=O)=O)c2)s1 [Compound (20), N-[5-(4-Chloro-3-methanesulfonyl-phenyl)-4-methyl-thiazol-2-yl]-acetamide, reference compound]
[5]
  Ratio IC50 WB/enzyme (PI 3-Kinase): 17

## Cc1nc(NC(=O)CC[C@H](N)C(=O)OC2CCCC2)sc1-c1ccc(Cl)c(S(C)(=O)=O)c1 [Compound (21), (S)-2-Amino-4-[5-(4-chloro-3-methanesulfonyl-phenyl)-4-methyl-thiazol-2-ylcarbamoyl]-butyric acid cyclopentyl ester]
[5]
  Ratio IC50 WB/enzyme (PI 3-Kinase): 0.15

## Cc1nc(NC(=O)CC[C@H](N)C(=O)OC(C)(C)C)sc1-c1ccc(Cl)c(S(C)(=O)=O)c1 [Compound (23), (S)-2-Amino-4-[5-(4-chloro-3-methanesulfonyl-phenyl)-4-methyl-thiazol-2-ylcarbamoyl]-butyric acid tert-butyl ester]
[5]
  Ratio IC50 WB/enzyme (PI 3-Kinase): 0.75

## COc1cc(NCc2cnc3nc(N)nc(N)c3c2C)cc(OC)c1OC [drawing 10]
[2]
  Ratio IC50 Cell/enzyme (HCT116), Table 2: 170
[3]; U937 cell IC50 / DHFR enzyme IC50
  Ratio IC50 cell/enzyme (U937), Table 2: 220
